# Results taken from publication PMC10517971, “An inverse agonist of orphan receptor GPR61 acts by a G protein-competitive allosteric mechanism” (Nature Communications, 2023).
# How the values were obtained:
# human GPR61 N345A = biological target: T1, human GPR61 N345A (Homo sapiens, UniProt Q9BZJ8, N345A); experiment: Functional cAMP assay (HTRF), transiently transfected CHO-K1 cells, GPR61 N345A mutant; type: cell-based; settings: at up to 10 μM concentration
# T1 construct: expressed in transfected cells; host or cells: CHO-K1, transient (Fugene6)
# Excerpt: The human GPR61 (reference sequence NM_031936.4) cDNA was synthesized and subcloned into pcDNA5/FRT/TO (Thermo Fisher, Pittsburgh, PA). The pcDNA5/FRT/TO/ human GPR61 plasmid was then transfected into the Flp-In™-CHO Cell Line (Thermo Fisher, Pittsburgh, PA) and a doxycycline-inducible clonal cell line was selected (CHO TREx hGPR61 WT). Sequences encoding untagged and HiBit/hemagglutinin (HA)-tagged versions of the wild-type human GPR61 were synthesized and cloned into pcDNA3.1. The HiBit ([…]) and HA ([…]) tags were sequentially included after the N-terminal initiator methionine. […]
# Parental CHO-K1 cells were maintained at 37 °C in a humidified environment (5% CO2) and grown in Dulbecco’s Modified Eagle Medium (DMEM) F-12 media (Gibco, 11320033) supplemented with 10% FBS, 1% Glutamax (Gibco, 35050061) and 100units/ml penicillin and streptomycin (Gibco, 15140122. Cells were dissociated using a cell dissociation solution (Gibco, 13151-014), counted, and resuspended in complete culture media without antibiotics. Cells were then transiently transfected using Fugene6 (Promega) in a 384-well plate format (Corning, 3570). For each well, 7500 cells were transfected with 5 ng of receptor plasmid, 20 ng of carrier DNA (Promega, PAE4881) and 0.075 μl Fugene6 in a final volume of 25 μl. […]
# Human PDE1B1 = Human PDE1B1 (Homo sapiens, UniProt Q01064); experiment: Phosphodiesterase Assay (SPA); type: biochemical
# Human PDE3A1 = Human PDE3A1 (Homo sapiens, UniProt Q14432); experiment: Phosphodiesterase Assay (SPA); type: biochemical
# Protocol: (§1) 45 37 °C for 30 min (DAT) or 60 min (NET and SER T). The plate is transferred to the FLIPR Tetra®
# (§2) 46 instrument and the fluorescence of each well was measured (Ex 470- 495 […]).
# (§3) 47 The level of fluores cenc e measured dire ctly relates to the level of uptake of the dye labelled amine,
# (§4) 48 with a reduction in levels being related to an inhibition of the respective transporter.
# (§5) 49 Phosphodiesterase Assays
# (§6) 50 The phosphodiesteras e (P DE) assays m easure the conversion of 3’, 5 ’ -[3H ] cAMP to 5’-[3H] AMP
# (§7) 51 (for PDE 3A1 and 4D3) or 3’, 5’-[3H] cGMP to 5’-[3H] GMP (for 5A1) by the relevant PDE
# (§8) 52 enzyme subtype. Yttrium silicate (YSi) scintillation proximity (SPA) beads bind selectively to 5’-
# (§9) 53 [3H] AMP or 5’-[3H] GMP, with the magnitude of radioactive counts being directly related to
# (§10) 54 PDE enzymatic activity. The ass ay was performed in white walled op aque b ottom 384-well plates.
# (§11) 55 Test compound (1 µL) in dimethyl sulfoxide was added to each well. Enzyme solution was then
# (§12) 56 added to each well in buffer (in mM: Trizma, 50 (pH7.5); MgCl2, 1.3 mM) containing Brij 35
# (§13) 57 (0.01% (v/v)). Subsequently, 20 µL of 3’,5’-[3H] cGMP (125 nM) or 20 µL of 3’,5’-[3H] cAMP
# (§14) 58 (50 nM) was added to each well to start the reaction and the plate was incubated for 30 min at
# (§15) 59 25 °C. The reaction was terminated by the addition of 20 µL of PDE YSi SPA beads (Perkin Elmer,
# (§16) 60 Waltham, MA). Followin g an additional 8 h incubation period the plates were read on a MicroBeta
# (§17) 61 radioactive plat e counter (Perkin Elmer, Waltham, MA, USA) to determine radioactive counts per
# (§18) 63 Bromodomain-Containing Protein 4 (BRD4) Binding Assay
# (§19) 64 The BRD4 fluorescent polarization binding assay uses purified His-tagged BRD4 protein and its
# (§20) 65 interaction with a Cy5 labelled small molecule probe that binds to the BRD4 site involved in the
# (§21) 66 interaction with tetra-acetylated histone H4 peptide. In brief, the assay is performed in low volume
# Human PDE4D3 = Human PDE4D3 (Homo sapiens, UniProt Q08499); experiment: Phosphodiesterase Assay (SPA); type: biochemical
# Protocol: as §1, §2, §3, §4, §5, §6, §7, §8, §9, §10, §11, §12, §13, §14, §15, §16, §17, §18, §19, §20, §21
# Human PDE5A1 = Human PDE5A1 (Homo sapiens, UniProt O76074); experiment: Phosphodiesterase Assay (SPA); type: biochemical
# Protocol: as §1, §2, §3, §4, §5, §6, §7, §8, §9, §10, §11, §12, §13, §14, §15, §16, §17, §18, §19, §20, §21
# Human PDE10A1 = Human PDE10A1 (Homo sapiens, UniProt Q9Y233); experiment: Phosphodiesterase Assay (SPA); type: biochemical
# Chain of Human PDE10A1 (Q9Y233 1-779 isoform Q9Y233-1): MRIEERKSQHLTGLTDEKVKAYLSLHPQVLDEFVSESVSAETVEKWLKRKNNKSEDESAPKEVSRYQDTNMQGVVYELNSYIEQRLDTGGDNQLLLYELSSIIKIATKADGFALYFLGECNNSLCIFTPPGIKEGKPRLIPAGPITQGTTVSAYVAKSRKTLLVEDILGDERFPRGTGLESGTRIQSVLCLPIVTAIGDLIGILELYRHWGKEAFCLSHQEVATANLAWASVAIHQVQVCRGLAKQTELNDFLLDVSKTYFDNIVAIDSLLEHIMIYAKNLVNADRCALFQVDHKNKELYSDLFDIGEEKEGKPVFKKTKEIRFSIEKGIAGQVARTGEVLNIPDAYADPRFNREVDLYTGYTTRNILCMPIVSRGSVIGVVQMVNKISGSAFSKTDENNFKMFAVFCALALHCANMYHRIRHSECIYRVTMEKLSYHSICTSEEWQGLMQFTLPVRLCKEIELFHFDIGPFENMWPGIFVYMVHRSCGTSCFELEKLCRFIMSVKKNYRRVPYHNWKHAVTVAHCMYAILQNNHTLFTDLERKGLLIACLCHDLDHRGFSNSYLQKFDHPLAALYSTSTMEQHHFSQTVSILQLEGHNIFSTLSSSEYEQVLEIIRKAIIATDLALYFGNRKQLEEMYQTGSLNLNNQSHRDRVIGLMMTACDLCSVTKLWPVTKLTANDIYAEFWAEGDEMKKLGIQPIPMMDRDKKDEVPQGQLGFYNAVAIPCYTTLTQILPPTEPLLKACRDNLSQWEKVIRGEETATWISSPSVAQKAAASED
# Chain of Human PDE1B1 (Q01064 whole entry): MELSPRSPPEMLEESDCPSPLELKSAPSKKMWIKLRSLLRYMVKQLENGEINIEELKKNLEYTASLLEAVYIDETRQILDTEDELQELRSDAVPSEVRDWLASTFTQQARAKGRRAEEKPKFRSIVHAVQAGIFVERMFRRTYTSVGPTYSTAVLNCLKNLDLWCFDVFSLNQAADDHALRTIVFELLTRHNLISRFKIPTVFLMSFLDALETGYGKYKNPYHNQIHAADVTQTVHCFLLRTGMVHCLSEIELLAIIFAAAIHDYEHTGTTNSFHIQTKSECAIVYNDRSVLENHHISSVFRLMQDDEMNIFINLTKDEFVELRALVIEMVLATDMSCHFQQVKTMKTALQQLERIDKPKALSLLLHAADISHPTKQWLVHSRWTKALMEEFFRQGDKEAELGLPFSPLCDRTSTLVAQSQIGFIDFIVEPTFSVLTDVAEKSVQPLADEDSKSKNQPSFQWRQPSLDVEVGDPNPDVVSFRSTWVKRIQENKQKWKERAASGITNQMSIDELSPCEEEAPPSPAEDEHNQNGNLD
# Chain of Human PDE3A1 (Q14432 whole entry): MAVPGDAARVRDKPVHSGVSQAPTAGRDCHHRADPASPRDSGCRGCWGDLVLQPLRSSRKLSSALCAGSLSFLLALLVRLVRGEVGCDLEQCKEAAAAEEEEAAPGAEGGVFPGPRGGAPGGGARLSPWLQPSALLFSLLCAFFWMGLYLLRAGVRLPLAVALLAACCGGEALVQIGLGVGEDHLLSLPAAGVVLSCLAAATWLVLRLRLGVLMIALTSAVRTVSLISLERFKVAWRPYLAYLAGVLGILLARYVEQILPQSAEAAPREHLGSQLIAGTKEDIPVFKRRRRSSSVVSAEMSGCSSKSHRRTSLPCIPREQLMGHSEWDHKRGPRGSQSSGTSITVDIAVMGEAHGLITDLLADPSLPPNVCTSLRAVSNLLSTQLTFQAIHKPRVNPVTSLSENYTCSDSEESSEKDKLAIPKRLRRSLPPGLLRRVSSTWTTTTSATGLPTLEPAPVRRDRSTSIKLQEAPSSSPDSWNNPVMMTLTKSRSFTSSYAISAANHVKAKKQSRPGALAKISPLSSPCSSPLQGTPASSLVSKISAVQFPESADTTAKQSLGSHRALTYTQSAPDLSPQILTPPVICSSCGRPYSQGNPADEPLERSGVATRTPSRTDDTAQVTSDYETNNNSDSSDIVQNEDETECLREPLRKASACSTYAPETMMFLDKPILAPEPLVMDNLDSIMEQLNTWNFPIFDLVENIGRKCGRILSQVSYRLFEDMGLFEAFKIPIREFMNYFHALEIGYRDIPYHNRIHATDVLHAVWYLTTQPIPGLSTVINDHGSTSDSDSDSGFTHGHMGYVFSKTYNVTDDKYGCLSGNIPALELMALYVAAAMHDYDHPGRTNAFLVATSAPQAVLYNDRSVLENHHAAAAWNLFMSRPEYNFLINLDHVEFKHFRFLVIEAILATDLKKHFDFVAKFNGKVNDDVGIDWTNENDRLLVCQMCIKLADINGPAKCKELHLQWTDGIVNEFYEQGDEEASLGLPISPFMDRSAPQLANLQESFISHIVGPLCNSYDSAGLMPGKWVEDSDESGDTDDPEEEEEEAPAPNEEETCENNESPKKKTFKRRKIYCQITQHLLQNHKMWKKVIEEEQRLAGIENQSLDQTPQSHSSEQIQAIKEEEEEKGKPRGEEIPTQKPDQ
# Chain of Human PDE4D3 (Q08499 1-673 isoform Q08499-2): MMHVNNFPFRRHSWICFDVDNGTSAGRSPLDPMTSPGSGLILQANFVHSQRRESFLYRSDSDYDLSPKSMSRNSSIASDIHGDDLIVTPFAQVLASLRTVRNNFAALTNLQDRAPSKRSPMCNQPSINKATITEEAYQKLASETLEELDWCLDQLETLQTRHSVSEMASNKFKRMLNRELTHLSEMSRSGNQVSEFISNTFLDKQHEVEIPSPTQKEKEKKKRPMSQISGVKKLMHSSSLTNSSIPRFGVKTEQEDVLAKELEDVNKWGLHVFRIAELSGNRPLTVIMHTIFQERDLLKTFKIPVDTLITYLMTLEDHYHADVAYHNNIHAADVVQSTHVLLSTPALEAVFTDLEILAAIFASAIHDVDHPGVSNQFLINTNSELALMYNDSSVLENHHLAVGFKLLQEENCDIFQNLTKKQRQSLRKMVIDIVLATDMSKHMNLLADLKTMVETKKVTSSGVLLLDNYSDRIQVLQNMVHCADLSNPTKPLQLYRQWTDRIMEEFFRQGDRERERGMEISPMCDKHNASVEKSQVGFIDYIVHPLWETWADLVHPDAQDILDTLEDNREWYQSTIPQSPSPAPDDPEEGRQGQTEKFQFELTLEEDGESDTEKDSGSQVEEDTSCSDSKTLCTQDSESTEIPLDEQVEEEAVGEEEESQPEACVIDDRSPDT
# T1 sequence (Q9BZJ8 whole entry N345A): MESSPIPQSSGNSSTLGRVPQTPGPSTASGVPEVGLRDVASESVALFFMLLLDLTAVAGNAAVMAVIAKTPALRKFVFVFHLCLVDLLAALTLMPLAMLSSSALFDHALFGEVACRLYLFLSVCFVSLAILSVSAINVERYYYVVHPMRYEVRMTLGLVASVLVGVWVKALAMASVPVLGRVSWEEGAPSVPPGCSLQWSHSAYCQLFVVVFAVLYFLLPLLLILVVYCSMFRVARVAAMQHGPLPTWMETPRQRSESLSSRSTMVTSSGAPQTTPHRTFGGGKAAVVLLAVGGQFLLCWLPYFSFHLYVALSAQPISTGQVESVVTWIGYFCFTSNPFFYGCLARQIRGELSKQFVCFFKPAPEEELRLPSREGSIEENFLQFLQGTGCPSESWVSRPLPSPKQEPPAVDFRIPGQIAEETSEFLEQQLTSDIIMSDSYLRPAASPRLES
compound,measurement,setting,value
CCOc1cc(C)nc(N(CCOC)S(=O)(=O)c2ccc(NCc3c(F)cncc3F)nc2OC)n1 [Compound 1],sensitivity of the receptor to the compound in the cAMP assay,human GPR61 N345A,no sensitivity
same,IC50,Human PDE1B1,> 40 µM
same,IC50,Human PDE3A1,18.4 µM
same,IC50,Human PDE4D3,> 35 µM
same,IC50,Human PDE5A1,155 µM
same,IC50,Human PDE10A1,> 40 µM
